Experimental data as given in the NIST ThermoML archive (doi:10.1016/j.jct.2011.09.011).

Experiment: excess molar enthalpy (molar enthalpy of mixing); xn = mol fraction of the nth substance listed
Details: 101 kPa, Liquid, Parr 1455 solution calorimeter

CCCCCCCCCCO [decan-1-ol] + CC#N
Details	excess molar enthalpy [kJ/mol]
298.15 K, x1 = 0.0436	0.717
298.15 K, x1 = 0.0542	0.863
298.15 K, x1 = 0.0678	1.04
298.15 K, x1 = 0.079	1.17
298.15 K, x1 = 0.0919	1.31
298.15 K, x1 = 0.1077	1.47
298.15 K, x1 = 0.127	1.65
298.15 K, x1 = 0.1509	1.84
298.15 K, x1 = 0.181	2.05
298.15 K, x1 = 0.2197	2.29
298.15 K, x1 = 0.271	2.54
298.15 K, x1 = 0.3415	2.81
298.15 K, x1 = 0.3857	2.92
298.15 K, x1 = 0.4394	3.01
298.15 K, x1 = 0.5058	3.03
298.15 K, x1 = 0.5895	2.9
298.15 K, x1 = 0.6985	2.49
298.15 K, x1 = 0.78	2.02
298.15 K, x1 = 0.8433	1.56
298.15 K, x1 = 0.9159	0.928
303.15 K, x1 = 0.0586	1.03
303.15 K, x1 = 0.0678	1.15
303.15 K, x1 = 0.079	1.28
303.15 K, x1 = 0.0919	1.43
303.15 K, x1 = 0.1077	1.59
303.15 K, x1 = 0.127	1.75
303.15 K, x1 = 0.1509	1.93
303.15 K, x1 = 0.181	2.12
303.15 K, x1 = 0.2197	2.34
303.15 K, x1 = 0.271	2.6
303.15 K, x1 = 0.3415	2.88
303.15 K, x1 = 0.3857	2.98
303.15 K, x1 = 0.4394	3.06
303.15 K, x1 = 0.5058	3.08
303.15 K, x1 = 0.5895	2.98
303.15 K, x1 = 0.6985	2.63
303.15 K, x1 = 0.78	2.14
303.15 K, x1 = 0.8433	1.66
303.15 K, x1 = 0.9159	1.02
308.15 K, x1 = 0.0748	1.17
308.15 K, x1 = 0.1008	1.45
308.15 K, x1 = 0.1409	1.83
308.15 K, x1 = 0.1866	2.19
308.15 K, x1 = 0.2546	2.67
308.15 K, x1 = 0.3186	2.99
308.15 K, x1 = 0.4096	3.32
308.15 K, x1 = 0.4314	3.33
308.15 K, x1 = 0.455	3.32
308.15 K, x1 = 0.4807	3.3
308.15 K, x1 = 0.5088	3.26
308.15 K, x1 = 0.5395	3.21
308.15 K, x1 = 0.5734	3.14
308.15 K, x1 = 0.6109	3.03
308.15 K, x1 = 0.6525	2.87
308.15 K, x1 = 0.6991	2.66
308.15 K, x1 = 0.7515	2.37
308.15 K, x1 = 0.8108	1.97
308.15 K, x1 = 0.8785	1.4
308.15 K, x1 = 0.9566	0.593

CCCCCCCCCO [nonan-1-ol] + CC#N
excess molar enthalpy [kJ/mol]
Details	298.15 K	303.15 K	308.15 K
x1 = 0.0899	1.06	1.24	1.29
x1 = 0.1141	1.27	1.47	1.52
x1 = 0.1501	1.53	1.76	1.84
x1 = 0.1975	1.81	2.09	2.2
x1 = 0.2673	2.16	2.48	2.62
x1 = 0.3318	2.4	2.72	2.88
x1 = 0.4217	2.62	2.96	3.12
x1 = 0.443	2.64	2.97	3.1
x1 = 0.4659	2.66	2.97	3.09
x1 = 0.4906	2.67	2.95	3.06
x1 = 0.5175	2.67	2.93	3.01
x1 = 0.5468	2.64	2.88	2.95
x1 = 0.5787	2.59	2.81	2.87
x1 = 0.6138	2.51	2.71	2.76
x1 = 0.6524	2.4	2.58	2.62
x1 = 0.695	2.23	2.4	2.44
x1 = 0.7425	2.02	2.15	2.21
x1 = 0.7955	1.73	1.83	1.9
x1 = 0.8552	1.35	1.43	1.49
x1 = 0.9228	0.823	0.878	0.902
